Test results from ChEMBL document CHEMBL3045514, “An efficient one-pot cyclization of quinoline thiosemicarbazones to quinolines derivatized with 1,3,4-thiadiazole as anticancer and anti-tubercular agents” (Med Chem Res, 2012).
In brackets after ≈: the same amount, converted by molar mass. Activity calls are given as the source filed them. The calls are words filed in the database; no cut-off is given here.

Legend:
[1] = system: Mycobacterium tuberculosis; test: Antitubercular activity against Mycobacterium tuberculosis H37Rv at 25 ug/ml measured twice a week for 3 weeks by Ziehl-Neelsen staining; format: functional, organism-based
[2] = system: Mycobacterium tuberculosis; test: Antitubercular activity against Mycobacterium tuberculosis H37Rv at 10 ug/ml measured twice a week for 3 weeks by Ziehl-Neelsen staining; format: functional, organism-based
[3] = system: HeLa; test: Cytotoxicity against Homo sapiens (human) HeLa cells assessed as cell mortality after 24 to 72 hr by inverted microscopic analysis; format: functional
[4] = species on record: Mus musculus; test: Toxicity in Mus musculus (mouse) assessed as irritation; format: organism-based; conditions: in vivo
[5] = system: Mycobacterium tuberculosis; test: Antitubercular activity against Mycobacterium tuberculosis H37Rv at 5 ug/ml measured twice a week for 3 weeks by Ziehl-Neelsen staining; format: functional, organism-based
[6] = system: Mycobacterium tuberculosis; test: Antitubercular activity against Mycobacterium tuberculosis H37Rv measured twice a week for 3 weeks by Ziehl-Neelsen staining; format: functional; conditions: 504 h

Structure (SMILES) | Activity [1] | Activity [2] | Activity [3] [µg/mL] | Activity [4] | Activity [5] | MIC [6] [µg/mL]
CC(=O)NC1=NN(C(C)=O)C(c2cc3cc(Br)ccc3nc2Cl)S1 (stereo not drawn) | Active | Active | 20 | Non-toxic | inactive | –
CC(=O)NC1=NN(C(C)=O)C(c2cc3cc(C)ccc3nc2Cl)S1 (stereo not drawn) | Active | Active | 10 | Non-toxic | inactive | –
CC(=O)NC1=NN(C(C)=O)C(c2cc3ccc(C)cc3nc2Cl)S1 (stereo not drawn) | Active | Active | 20 | Non-toxic | inactive | –
CC(=O)NC1=NN(C(C)=O)C(c2cc3ccccc3nc2Cl)S1 (stereo not drawn) | Active | Active | 15 | Non-toxic | inactive | –
COc1ccc2cc(C3SC(NC(C)=O)=NN3C(C)=O)c(Cl)nc2c1 (stereo not drawn) | Active | Active | 15 | Non-toxic | inactive | –
CC(=O)NC1=NN(C(C)=O)C(c2cc3ccc(Cl)cc3nc2Cl)S1 (stereo not drawn) | Active | Active | 20 | Non-toxic | inactive | –
COc1cccc2cc(C3SC(NC(C)=O)=NN3C(C)=O)c(Cl)nc12 (stereo not drawn) | Active | Active | 15 | Non-toxic | inactive | 5 (≈ 13.2 µM)
COc1cc2cc(C3SC(NC(C)=O)=NN3C(C)=O)c(Cl)nc2cc1OC (stereo not drawn) | Active | Active | 10 | Non-toxic | inactive | –
COc1ccc2nc(Cl)c(C3SC(NC(C)=O)=NN3C(C)=O)cc2c1 (stereo not drawn) | Active | Active | 10 | Non-toxic | inactive | –
CN[C@@H]1[C@H](O[C@H]2[C@H](O[C@H]3[C@H](O)[C@@H](O)[C@H](N=C(N)N)[C@@H](O)[C@@H]3N=C(N)N)O[C@@H](C)[C@]2(O)C=O)O[C@@H](CO)[C@H](O)[C@H]1O [STREPTOMYCIN] | – | – | – | – | – | 10 (≈ 17.2 µM)
CC(=O)NC1=NN(C(C)=O)C(c2cc3cccc(C)c3nc2Cl)S1 (stereo not drawn) | Active | Active | 25 | Non-toxic | inactive | 5 (≈ 13.8 µM)
